Values quoted from earlier work in US20090311315A1, “Multimicroparticulate Oral Pharmaceutical Form with Modified Release of Angiotensin II Receptor Antagonists” (FLAMEL TECHNOLOGIES, S.A., priority 2005, published 2009).

conditions: in vivo

elimination half-life [h] | Compound
5 to 9 | eprosartan cilexitil
4 to 9 | CCOc1nc2cccc(C(=O)O)c2n1Cc1ccc(-c2ccccc2-c2nnn[nH]2)cc1 [cardesartan]
4 to 6 | CCCCC(=O)N(Cc1ccc(-c2ccccc2-c2nnn[nH]2)cc1)[C@H](C(=O)O)C(C)C [valsartan]
